Measured values: ChEMBL document CHEMBL1201862, “PubChem BioAssay data set” (2004)
Activity calls are given as the source filed them. Rule as the data show it, for most assays here: actives have a measured EC50 and inactives only a lower limit.

Key:
[1] = luciferase reporter signal suppression in cells – H4 neuroglioma cells, luminescence, dose response (AID 1990); type: functional, cell-based
[2] = Luminescence Cell-Based Dose Response HTS to Identify Inhibitors of 5'UTR Stem-Loop Driven Prion Protein mRNA Translation in H4 Neuroglioblastoma Cells. [Related pubchem assays: 1827 (Project Summary), 1813 (Primary HTS)]; type: functional
[3] = alpha-synuclein stem-loop luciferase translation blockers – H4 neuroglioma cells, luminescence, confirmation (AID 1988); type: functional, cell-based
[4] = target: T1, Heat shock factor protein 1 (Mus musculus, UniProt P38532); experiment: decrease of HSF1-responsive luciferase luminescence – cell-based, NIH3T3, dose retest, confirmation (AID 2382); type: functional;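 also: NIH3T3 fibroblasts with HSF1-driven luciferase reporter stressed by proteasome inhibitor MG132; luminescence from HSF1-driven luciferase expression after 8 hours of MG132 stress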
T1 sequence (P38532 whole entry): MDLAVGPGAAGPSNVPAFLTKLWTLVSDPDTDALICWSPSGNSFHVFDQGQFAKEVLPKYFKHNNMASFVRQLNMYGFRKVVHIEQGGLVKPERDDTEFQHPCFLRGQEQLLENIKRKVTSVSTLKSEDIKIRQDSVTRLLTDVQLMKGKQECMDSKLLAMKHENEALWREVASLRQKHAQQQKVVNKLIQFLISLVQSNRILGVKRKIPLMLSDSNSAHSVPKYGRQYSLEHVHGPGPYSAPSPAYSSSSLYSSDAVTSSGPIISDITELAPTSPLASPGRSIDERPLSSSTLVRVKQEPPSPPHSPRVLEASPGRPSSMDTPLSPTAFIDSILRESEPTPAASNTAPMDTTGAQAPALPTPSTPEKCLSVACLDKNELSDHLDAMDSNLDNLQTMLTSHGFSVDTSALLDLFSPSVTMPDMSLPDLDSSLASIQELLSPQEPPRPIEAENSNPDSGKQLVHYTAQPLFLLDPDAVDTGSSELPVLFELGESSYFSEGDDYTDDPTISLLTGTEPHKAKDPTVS

[5] = target: T2, Replicative DNA helicase DnaB (Mycobacterium tuberculosis, UniProt P9WMR3); experiment: DnaB intein splicing inhibitors, dose response, biochemical, cell-free fluorescence (AID 449749); type: functional
T2 sequence (P9WMR3 whole entry): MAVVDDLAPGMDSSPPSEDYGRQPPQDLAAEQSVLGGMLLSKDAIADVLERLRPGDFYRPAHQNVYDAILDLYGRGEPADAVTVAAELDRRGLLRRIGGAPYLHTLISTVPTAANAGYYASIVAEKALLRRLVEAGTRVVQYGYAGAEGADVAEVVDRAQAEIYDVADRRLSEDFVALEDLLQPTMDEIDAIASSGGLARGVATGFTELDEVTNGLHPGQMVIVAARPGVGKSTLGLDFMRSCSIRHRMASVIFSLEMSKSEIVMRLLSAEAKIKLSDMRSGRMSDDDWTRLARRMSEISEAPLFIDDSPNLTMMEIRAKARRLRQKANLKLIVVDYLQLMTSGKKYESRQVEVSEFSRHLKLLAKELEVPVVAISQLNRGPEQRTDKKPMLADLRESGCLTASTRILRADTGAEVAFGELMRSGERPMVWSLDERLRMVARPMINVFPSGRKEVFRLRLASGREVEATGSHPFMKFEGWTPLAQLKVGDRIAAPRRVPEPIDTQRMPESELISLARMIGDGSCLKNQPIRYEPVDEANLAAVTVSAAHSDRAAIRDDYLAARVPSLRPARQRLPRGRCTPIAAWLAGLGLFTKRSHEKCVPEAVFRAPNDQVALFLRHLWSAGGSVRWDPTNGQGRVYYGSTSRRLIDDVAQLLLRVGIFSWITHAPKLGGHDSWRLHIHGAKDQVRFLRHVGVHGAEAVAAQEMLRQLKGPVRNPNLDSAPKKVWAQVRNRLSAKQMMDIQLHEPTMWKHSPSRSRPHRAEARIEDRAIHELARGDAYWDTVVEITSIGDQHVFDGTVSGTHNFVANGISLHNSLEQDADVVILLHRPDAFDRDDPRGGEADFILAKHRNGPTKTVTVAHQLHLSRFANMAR

Protein RecA = target: T3, Protein RecA (Mycobacterium tuberculosis, UniProt P9WHJ3); experiment: Fluorescence Cell-Free Homogeneous Dose Retest to Identify Inhibitors of RecA-Intein Splicing Activity. [Related pubchem assays (depositor defined):AID2097, AID2223, AID489010, AID492950]; type: functional
T3 sequence (P9WHJ3 whole entry): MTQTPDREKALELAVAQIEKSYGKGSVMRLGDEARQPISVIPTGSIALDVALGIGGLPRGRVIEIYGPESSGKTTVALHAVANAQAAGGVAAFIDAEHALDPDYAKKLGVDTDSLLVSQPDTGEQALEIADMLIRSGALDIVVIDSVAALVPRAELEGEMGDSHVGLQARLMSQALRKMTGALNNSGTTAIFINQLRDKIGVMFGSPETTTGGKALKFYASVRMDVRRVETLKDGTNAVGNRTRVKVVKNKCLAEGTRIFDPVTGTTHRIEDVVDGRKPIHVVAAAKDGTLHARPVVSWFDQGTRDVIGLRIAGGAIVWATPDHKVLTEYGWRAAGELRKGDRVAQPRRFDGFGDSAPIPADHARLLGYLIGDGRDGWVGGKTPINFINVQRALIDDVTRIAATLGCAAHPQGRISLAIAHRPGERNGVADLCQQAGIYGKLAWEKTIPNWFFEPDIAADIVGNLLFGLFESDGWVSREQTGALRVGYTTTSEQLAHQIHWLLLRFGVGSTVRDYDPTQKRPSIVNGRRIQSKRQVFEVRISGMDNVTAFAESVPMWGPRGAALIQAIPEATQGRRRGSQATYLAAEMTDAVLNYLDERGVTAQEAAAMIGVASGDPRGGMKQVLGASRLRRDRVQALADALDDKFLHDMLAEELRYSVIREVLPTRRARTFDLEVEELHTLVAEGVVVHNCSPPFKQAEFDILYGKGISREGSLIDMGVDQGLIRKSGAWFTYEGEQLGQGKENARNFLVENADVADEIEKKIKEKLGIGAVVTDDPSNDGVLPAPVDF

Protein skinhead-1 = target: T4, Protein skinhead-1 (Caenorhabditis elegans, UniProt P34707); type: functional
T4 sequence (P34707 whole entry): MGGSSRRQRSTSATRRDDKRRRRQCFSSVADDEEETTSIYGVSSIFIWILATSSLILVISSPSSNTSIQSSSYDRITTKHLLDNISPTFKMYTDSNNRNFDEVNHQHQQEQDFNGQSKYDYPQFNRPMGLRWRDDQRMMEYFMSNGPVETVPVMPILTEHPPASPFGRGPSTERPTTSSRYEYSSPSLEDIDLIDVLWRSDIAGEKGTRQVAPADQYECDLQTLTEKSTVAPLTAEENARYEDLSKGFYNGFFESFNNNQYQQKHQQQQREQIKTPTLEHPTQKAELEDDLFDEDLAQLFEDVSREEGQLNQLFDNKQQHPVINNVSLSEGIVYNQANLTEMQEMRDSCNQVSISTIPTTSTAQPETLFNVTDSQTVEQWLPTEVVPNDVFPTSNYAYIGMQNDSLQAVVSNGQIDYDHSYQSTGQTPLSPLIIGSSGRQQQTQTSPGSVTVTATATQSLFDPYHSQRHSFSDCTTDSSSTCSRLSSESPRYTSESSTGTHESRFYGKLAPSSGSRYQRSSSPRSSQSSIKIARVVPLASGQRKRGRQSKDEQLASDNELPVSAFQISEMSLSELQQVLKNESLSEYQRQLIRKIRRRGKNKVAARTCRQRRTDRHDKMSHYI

[6] = Luminescence Cell-Based Dose Response HTS to Identify Activators of Luciferase Translation or Activity in H4 […] Cells. [Related pubchem assays: 1829 (Project Summary), 1814 (Primary HTS)]; type: functional
H4 = experiment: Luminescence Cell-Based Dose Response HTS to Identify Activators of 5'UTR Stem-Loop Driven Prion Protein mRNA Translation in H4 Neuroglioblastoma Cells. [Related pubchem assays: 1829 (Project Summary), 1814 (Primary HTS)]; type: functional; settings: Homo sapiens

Cc1cc(Oc2ccc3ccccc3c2)nc(SCC(=O)c2ccccc2)n1
EC50 [1]: > 120 µM (not active) | EC50 [2]: 15 µM (active) | EC50 [3]: 26.9 µM (active)

CCOc1ccc(CNS(=O)(=O)c2c(C)nc3scc(C)n3c2=O)cc1OC
EC50 [4]: > 195 µM (not active)

O=C(Nc1ccc(N2CCN(c3ccc(O)cc3)CC2)cc1)Oc1ccccc1
EC50 [4]: > 195 µM (not active)

COc1cc(-c2onc3ccc(Br)cc23)cc(OC)c1OC
EC50 [1]: > 120 µM (not active) | EC50 [2]: 10.8 µM (active) | EC50 [3]: 4.29 µM (active)

CCOc1ccccc1-n1c(CN2CCN(C(=O)c3ccco3)CC2)nc2ccccc2c1=O
EC50 [1]: 8.25 µM (active) | EC50 [2]: 8.43 µM (active) | EC50 [3]: 7.97 µM (active)

Cc1n[nH]c2c1C(c1ccco1)C(C#N)=C(N)O2 (configuration not stated)
AC50 [5]: 54.1 µM (active) | EC50 (Protein RecA): 4.28 µM (active)

CC(C)CCNC(=O)c1cnn2c(C(F)(F)F)cc(-c3ccco3)nc12
IC50 (Protein skinhead-1): > 100 µM (inactive)

O=C(Nc1ccccc1-c1nc2ccccc2s1)c1cccnc1
EC50 [4]: > 195 µM (not active)

N#CC1=C(N)Oc2[nH]nc(-c3cccs3)c2C1c1ccoc1 (configuration not stated)
AC50 [5]: 10.4 µM (active) | EC50 (Protein RecA): 7.09 µM (active)

O=C(c1cnn2c(C(F)F)cc(-c3ccccc3)nc12)N1CCCc2ccccc21
EC50 [1]: 19.2 µM (active) | EC50 [2]: 23.8 µM (active) | EC50 [3]: 26.3 µM (active)

CC1CCc2nc(NC(=O)C3COc4ccccc4O3)sc2C1 (configuration not stated)
EC50 [1]: 5.93 µM (inconclusive) | EC50 [2]: 10 µM (active) | EC50 [3]: 5.45 µM (active)

COc1ccc(CNC(=O)C2CCN(S(=O)(=O)c3ccc4c(c3)C(C)(C)C(=O)N4C)CC2)cc1
EC50 [4]: 55.2 µM (active)

Brc1ccc(-c2nc(-c3ccncc3)no2)o1
IC50 (Protein skinhead-1): 86.1 µM (inactive)

COc1ccc(C=O)cc1CN1CCCN(Cc2ccc(Cl)cc2)S1(=O)=O
EC50 [4]: > 195 µM (not active)

Cc1ccccc1Cn1nnc2c1C(=O)c1ccccc1C2=O
EC50 [1]: > 120 µM (not active) | EC50 [2]: > 120 µM (not active) | EC50 [3]: > 60 µM (not active)

O=S(=O)(O)Oc1c[nH]c2ccccc12
AC50 [5]: 1.34 µM (active) | EC50 (Protein RecA): 0.155 µM (active)

CCCC(=O)Nc1cccc(NC(=O)c2cccc([N+](=O)[O-])c2C)c1
EC50 [4]: 20.5 µM (active)

O=C(Nc1nc(C(F)(F)F)n[nH]1)c1cccs1
AC50 [5]: 3.65 µM (active) | EC50 (Protein RecA): 9.84 µM (active)

COc1cc(C2NC(=O)NC(C)=C2C(=O)OCC2CCCO2)ccc1O (configuration not stated)
EC50 [4]: > 195 µM (not active)

O=C(c1ccccc1)N1C(=O)C(c2ccccc2)Oc2ccccc21 (configuration not stated)
EC50 [1]: > 120 µM (not active) | EC50 [2]: > 120 µM (not active) | EC50 [3]: > 120 µM (not active)

COCCCNC(=O)COc1ccc2oc3c(c2c1)CCCC3
IC50 (Protein skinhead-1): > 100 µM (inactive)

O=S(=O)(c1cc(Cl)ccc1Cl)N1CCC2(CC1)OCCO2
EC50 [4]: > 195 µM (not active)

O=C(OCc1ccccc1)c1ccc2c(c1)-c1ccccc1C2=O
EC50 [6]: 14.8 µM (active) | EC50 (H4): 11.1 µM (active)

Cc1ccc(Cl)c(N/C=C/C(=O)c2ccccc2)c1
IC50 (Protein skinhead-1): 27.9 µM (active)

CC(Oc1ccc(Cl)cc1)c1ccnn1S(C)(=O)=O (configuration not stated)
IC50 (Protein skinhead-1): > 100 µM (inactive)

CCC(=O)CCC(=O)c1ccc2ccccc2c1
EC50 [4]: > 195 µM (not active)

O=c1c([N+](=O)[O-])c(N2CCOCC2)c2ccccc2n1Cc1ccccc1
EC50 [1]: 19 µM (active) | EC50 [2]: > 120 µM (not active) | EC50 [3]: > 120 µM (not active)

Cc1ccc(-c2nnc(-c3cccs3)o2)cc1
IC50 (Protein skinhead-1): 35.5 µM (active)

N#Cc1cc([N+](=O)[O-])ccc1NC(=O)COC(=O)CCC1CCCCC1
AC50 [5]: 1.72 µM (active) | EC50 (Protein RecA): 3.31 µM (active)

O=C(c1cnn2c(C(F)(F)F)cc(-c3ccco3)nc12)N1CCCc2ccccc21
IC50 (Protein skinhead-1): > 100 µM (inactive)

CS(=O)(=O)NNC(=O)CN1C(=O)C2C3C=CC(C3)C2C1=O (configuration not stated)
EC50 [1]: > 120 µM (not active) | EC50 [2]: 22.1 µM (active) | EC50 [3]: > 120 µM (not active)

Cn1c(SCC(=O)NCC2CCCO2)ncc(C(=O)Nc2ccc(F)cc2)c1=O (configuration not stated)
AC50 [5]: 0.51 µM (active) | EC50 (Protein RecA): 0.315 µM (active)

O=S(=O)(Nc1c(O)ccc2ccccc12)c1ccc(F)cc1
AC50 [5]: 12.2 µM (active) | EC50 (Protein RecA): 1.16 µM (active)

CC(=O)/C(=N\Nc1ccc(Cl)cc1)Sc1nnc(-c2ccccc2)n1-c1ccccc1
EC50 [4]: > 195 µM (not active)

Cc1cc(=O)n(-c2ccccc2Cl)[nH]1
AC50 [5]: 10.7 µM (active) | EC50 (Protein RecA): 5.4 µM (active)

C/C(CC(=O)Nc1ccccn1)=N\NC(=O)c1cccc(C)c1
AC50 [5]: 20.1 µM (active) | EC50 (Protein RecA): 7.75 µM (active)

COc1ccc(CCN2C(=O)CS/C2=N\NC(=O)c2ccc(C(C)(C)C)cc2)cc1OC
EC50 [1]: 22.4 µM (active) | EC50 [2]: 21.1 µM (active) | EC50 [3]: > 120 µM (not active)
